What was measured:
human dermal fibroblasts = test: UVA-induced intracellular amplification of ROS (dihydrorhodamine 123, flow cytometry); type: cell-based
Experimental: The modulating effect of the tripeptides […]) and Thyrotropin Releasing Hormones (TRH, Protirelin, Thyoliberin, […]) was examined on human dermal fibroblasts that were seeded into 3.5 cm^2 tissue culture dishes in a density of 150,000 per dish in […] medium. Two days after seeding the cells, the medium supplemented with 10% foetal calf serum, 1% L-glutamine and 1% penicillin/streptomycin was exchanged with serum-free RPMI medium and pre-incubated for 24 hours with KPV, […] Subsequently, the cells were exposed to a physiological dose of UVA radiation (10 J/cm^2). Immediately after radiation, the cells were incubated with 5 μM dihydrorhodamine 123 plus 5 mM glucose in phosphate buffer (PBS) for 30 minutes. Subsequently, the cells were trypsinized, resuspended in PBS with 5 mM glucose and analyzed by means of flow cytometry (FACS, FACSCalibur with 488 nm argon laser). The above dihydrorhodamine probe is oxidized in the presence of intracellular ROS into green fluorescent […] and, thus, can be measured fluorometrically. A total of 10×10^3 cells per probe were analyzed and evaluated using CELL-QUEST software. The median of the FL-1 channel was used as parameter for the intracellular ROS amount, since it represents the maximum number of cells with the highest fluorescence. […]

B16.F1 melanoma cells = test: Extracellular melanin accumulation (optical density 405 nm); type: cell-based, mouse; conditions: peptides at 10^-6, 10^-8 and 10^-10 M; NDP-α-MSH 10^-8 M; 72 hrs (FIG. 3)
From the text: It is also preferred that the compounds of the invention have no or merely a negligible melanotropic effect. “Melanotropic effect” means that the compound induces the extracellular melanin accumulation in a cell assay in accordance with the method described in the appended example 2 and/or in accordance with the method described in Siegrist and Eberle (Anal. Biochem. 1986; 159; 191-197), title “In situ melanin assay for MSH using mouse B16 melanoma cells in culture”. “No or negligible” means that the mean melanin accumulation which is induced by the compounds of the invention exceeds the mean melanin accumulation which is induced by at least one of the two compounds as exemplified in Example 2 by not more than about 40%, 30%, 20%, 15%, 10%, 5%, 2.5%, 2% or 1%, preferably under conditions which equate to or are identical with those set out in Example 2. The skilled person is able to justify which assay conditions/assays equate with the assay/conditions exemplified in the appended examples. The melanin accumulation evaluated in Example 2 is depicted in FIG. 3. The effect of the compounds of the invention on extracellular melanin accumulation is thus determinable by the methods disclosed herein. […]

Compound: NC(=O)[C@@H]1CCCN1C(=O)[C@H](Cc1c[nH]cn1)NC(=O)[C@@H]1CCC(=O)N1 [TRH, L-Pyroglutamyl-L-histidyl-L-prolinamid]
- UVA-induced intracellular amplification of ROS (oxidative stress) (human dermal fibroblasts; 10^-8 M peptide, 24 h pre-incubation, UVA 10 J/cm^2, significant, p<0.001 (FIG. 1)): suppressed
- effect on UVA-induced intracellular amplification of ROS compared to vitamin C (ascorbate) (human dermal fibroblasts; peptide 10^-8M vs vitamin C at 10^-2M as printed (FIG. 2)): comparable with that of vitamin C

Compound: NDP-α-MSH
- melanotropic effect (extracellular melanin accumulation) (B16.F1 melanoma cells): p<0.001 vs. control
